US20060241132A1, “Spiro derivatives and adhesion molecule inhibitors comprising the same as active ingredient” (Toray Industries, Inc. A Corporation of Japan, priority 2002, published 2006)

What was measured:
soluble VLA-4 = soluble VLA-4 (Homo sapiens, UniProt P05556+P13612); assay: Inhibition of binding between CS-1 peptide and soluble VLA-4; details: absorbance at 490 nm, read-out: Inhibitory activity (IC50: nM)
Protocol: The inhibitory activity of the compound according to the present invention against the adhesion of VLA-4 may be determined by using an adhesion-measuring system in which the adhesion between VLA-4-expressing cells such as Ramos cells or Jurkat cells and fibronectin or fibronectin fragment such as a peptide containing CS-1 sequence (Gly Pro Glu He Leu Asp Val Pro Ser Thr) (hereinafter referred to as “CS-1 peptide”) immobilized on an immunoplate is measured. Alternatively, a binding-measuring system in which the adhesion between VLA-4 protein and fibronectin or fibronectin fragment such as CS-1 peptide immobilized on an immunoplate is measured may be used. In the present invention, it is preferred to evaluate the inhibitory activity of a compound using a binding-measuring system of soluble VLA-4 with CS-1 peptide (WO 98/32771), but the method is not restricted thereto. When testing the inhibitory effect of a compound, it is preferred to mix the soluble VLA-4 and the test compound beforehand.
Inhibitory Effect of Compounds Against Binding between CS-1 Peptide and Soluble VLA-4
The test compounds were evaluated in accordance with the method described in WO 98/32771. That is, in accordance with the teaching of a report (J. Bio. Chem., 262, 6886 (1987)), a conjugate between a peptide (Gys Leu His Gly Pro Glu Glu Ile Leu Asp Val Pro Ser Thr) containing CS-1 sequence and rabbit IgG (Sigma) was prepared. […]
Each compound and soluble VLA-4 (100 μl) were preliminarily reacted at room temperature for 20 minutes, and then the resulting mixture was allowed to react with the CS-1 peptide in each well at 30° C. for 3 hours. […] Then o-phenylenediamine as a substrate was added to color the reaction solution, and the absorbance at 490 nm was measured. From this absorbance, the binding inhibitory activity of each compound was determined.

[1] = tested on: DNFB-induced ear swelling in Balb/c mouse; assay: Mouse allergic inflammation: DNFB-induced ear swelling after anti-DNP IgE sensitization; format: in vivo; details: male Balb/c mouse, anti-DNP IgE sensitized
Protocol: Inhibitory Effect of Compounds Against Mouse Allergic Inflammation
Using a seven-week old male Balb/c mouse (Charles River Japan, Inc.), sensitization was carried out by intravenously administering anti-DNP mouse IgE antibody. Twenty-four hours after sensitization, 0.38% DNFB (2,4-dinitrofluorobenzene) which was dissolved in a mixed solution of acetone:olive oil at 4:1 was applied to the right auricle of the mouse to induce inflammation. The thickness of both auricles was measured each hour after induction with a thickness gauge to calculate the ear swelling ratio (%) after induction versus pre-induction. The test compounds were dissolved in ethanol for applying to the auricle before induction.

Sequence of soluble VLA-4 (P13612 35-977 limits assumed): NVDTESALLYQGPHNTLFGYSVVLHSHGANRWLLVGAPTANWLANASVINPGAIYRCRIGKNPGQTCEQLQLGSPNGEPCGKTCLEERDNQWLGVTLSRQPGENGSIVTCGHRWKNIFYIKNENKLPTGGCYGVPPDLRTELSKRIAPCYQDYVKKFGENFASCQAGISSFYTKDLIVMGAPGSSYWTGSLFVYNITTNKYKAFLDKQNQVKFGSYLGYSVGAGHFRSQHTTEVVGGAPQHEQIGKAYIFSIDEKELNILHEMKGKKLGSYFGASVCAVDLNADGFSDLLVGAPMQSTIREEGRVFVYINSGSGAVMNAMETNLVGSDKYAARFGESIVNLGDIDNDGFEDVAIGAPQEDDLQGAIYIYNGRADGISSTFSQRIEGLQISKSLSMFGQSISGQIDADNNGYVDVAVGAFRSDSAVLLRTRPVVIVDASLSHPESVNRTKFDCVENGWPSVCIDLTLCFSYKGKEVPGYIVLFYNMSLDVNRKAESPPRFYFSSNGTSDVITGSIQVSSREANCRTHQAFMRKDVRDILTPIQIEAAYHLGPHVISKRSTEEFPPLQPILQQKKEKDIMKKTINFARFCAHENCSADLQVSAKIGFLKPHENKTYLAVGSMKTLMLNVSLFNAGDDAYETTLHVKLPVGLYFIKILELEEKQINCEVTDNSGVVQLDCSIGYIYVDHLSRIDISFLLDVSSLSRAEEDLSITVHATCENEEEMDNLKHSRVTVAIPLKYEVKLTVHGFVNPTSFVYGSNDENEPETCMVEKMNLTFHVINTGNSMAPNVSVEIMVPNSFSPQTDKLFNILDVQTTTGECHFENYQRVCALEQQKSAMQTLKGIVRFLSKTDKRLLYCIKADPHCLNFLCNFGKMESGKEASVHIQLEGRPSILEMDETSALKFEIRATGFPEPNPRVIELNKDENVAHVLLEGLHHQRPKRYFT
Sequence of soluble VLA-4 (P05556 21-728 limits assumed): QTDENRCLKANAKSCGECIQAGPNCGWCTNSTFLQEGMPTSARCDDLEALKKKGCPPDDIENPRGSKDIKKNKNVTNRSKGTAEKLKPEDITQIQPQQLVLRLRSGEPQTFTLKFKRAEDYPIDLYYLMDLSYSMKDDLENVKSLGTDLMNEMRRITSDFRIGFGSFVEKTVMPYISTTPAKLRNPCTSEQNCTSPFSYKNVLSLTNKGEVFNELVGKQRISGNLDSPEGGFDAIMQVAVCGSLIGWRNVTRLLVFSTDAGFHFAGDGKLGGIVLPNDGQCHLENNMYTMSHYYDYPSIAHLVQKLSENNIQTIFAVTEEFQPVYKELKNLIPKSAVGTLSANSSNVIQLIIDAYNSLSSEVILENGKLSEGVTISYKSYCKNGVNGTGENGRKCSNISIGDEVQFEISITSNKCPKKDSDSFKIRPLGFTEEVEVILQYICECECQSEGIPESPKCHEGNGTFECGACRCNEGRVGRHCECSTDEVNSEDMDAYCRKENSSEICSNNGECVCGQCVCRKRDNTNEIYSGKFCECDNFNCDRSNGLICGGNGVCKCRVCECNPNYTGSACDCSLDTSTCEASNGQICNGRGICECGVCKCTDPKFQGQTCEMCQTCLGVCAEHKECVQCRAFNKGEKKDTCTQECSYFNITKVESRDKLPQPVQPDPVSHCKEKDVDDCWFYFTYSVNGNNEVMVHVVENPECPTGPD

Row | Compound | IC50 (soluble VLA-4) [nM] | ED 50 value, suppression of the increase in the ratio of ear swelling ([1]; 0.38% DNFB on right auricle, compound in ethanol applied to the auricle before induction) [mg/kg] | suppression of the increase in the ratio of ear swelling from DNFB induction ([1]; DNFB-induced, compound applied to the auricle before induction)
1 | Cc1cccc(Cl)c1S(=O)(=O)NC(CNC(=O)N1CCC2(CC1)C(=O)N(C)CN2c1ccccc1)C(=O)O (centres unmarked) [Compound 8, 2-(((2-Chloro-6-methylphenyl)sulfonyl)amino)-3-((2,4,8-triaza-2-methyl-1-oxo-4-phenylspiro[4.5]dec-8-yl)carbonylamino)propanoic acid] | 110 |  | 
2 | CC(=O)N1CCC[C@H]1C(=O)NC(CNC(=O)N1CCC2(CC1)C(=O)NCN2c1ccccc1)C(=O)O (stereo partly drawn) [Compound 16, 2-(((2S)-1-Acetylpyrrolidine-2-yl)carbonylamino)-3-((2,4,8-triaza-1-oxo-4-phenylspiro[4.5]dec-8-yl)carbonylamino)propanoic acid] | 110 | 0.8 | suppressed the increase in the ratio of ear swelling in a dose-dependent manner
3 | CC(=O)N1CCCCC1C(=O)NC(CNC(=O)N1CCC2(CC1)C(=O)NCN2c1ccccc1)C(=O)O (centres unmarked) [Compound 18, 2-((1-Acetyl(2-piperidyl))carbonylamino)-3-((2,4,8-triaza-1-oxo-4-phenylspiro[4.5]dec-8-yl)carbonylamino)propanoic acid] | 65 |  | 
